Test results reported in PMC9780326, “Venom composition and pain-causing toxins of the Australian great carpenter bee Xylocopa aruana” (Scientific Reports, 2022).
Where two headings read alike, the source gives them in different places. No end group written: not given here.

Legend:
mice [1] = experiment: Paw swelling (paw thickness) after intraplantar injection; assay type: in vivo, male C57BL/6J mice; conditions: 200 pmol + venom PLA2 (20 pmol)
[2] = cited from earlier work
From the text: By far the most studied bee venom is that of the Western honeybee Apis mellifera. Its venom is dominated by a 26-residue cysteine-free amphipathic peptide known as melittin which makes up 40–60% of the dry weight of the venom. Another major components is venom phospholipase-A2 (PLA2; 10–12% dry weight), with smaller amounts of histamine (5–10%), venom hyaluronidase (1–2%) and the small disulfide-rich peptides apamin (3%) and mast cell-degranulating (MCD)-peptide (2%)[4]. Other reported components are present in trace amounts.

HEK293AD cells = experiment: Whole-cell patch-clamp, leak current in HEK293AD cells (QPatch 16X); assay type: cell-based
Experimental: The mature peptide of XYTX1-Xa1a shares a similar primary structure with Xac-1, Xac-2 and melectin. […] We hypothesised that XYTX1-Xa1a would share the same activity. We tested, by whole-cell patch-clamp electrophysiology, the capacity of XYTX1-Xa1a to directly induce leak currents in cell membranes. For these experiments we used HEK293AD cells, which lack appreciable expression of the ion channels found in neurons. At 4 min after application of XYTX1-Xa1a (30 μM) we recorded leak currents at test potentials ranging from − 60 to + 60 mV in 10-mV increments from a holding potential of 0 mV every 6 s. At + 60 mV, we recorded currents of 3.3 ± 0.6 nA (mean ± SEM, n = 6 cells) compared with 0.08 ± 0.02 nA (n = 5 cells) for time-matched negative controls (application of extracellular solution (ECS)) (Fig. 3a–c).
(a) Representative current traces in HEK293AD cells at voltages of − 60 to + 60 mV (10 mV steps) acquired before application and 2 min after application of (a) extracellular solution (ECS) or (b) 30 μM XYTX1-Xa1a. […] Data are expressed as mean ± SEM (n = 5–6 cells) and fitted to a simple linear regression. […]
HEK293AD cells (American Type Culture Collection) were cultured as previously described. […] From a holding potential of 0 mV each recorded cell was subjected to a series of 50-ms voltage pulses that ranged from − 60 to + 60 mV in 10-mV increments. […]

mice [3] = assay type: in vivo, male C57BL/6J mice; conditions: for pain behaviours on co-injection with venom PLA2: 200 pmol + venom PLA2 (20 pmol); for spontaneous pain behaviours: 200 pmol alone, 20 µL
F11 cells = assay type: cell-based, mouse neuroblastoma × rat DRG cell line; conditions: FLIPR, Calcium 4; peptide in PSS + 0.1% BSA, 300 s; mean ± SEM, n = 6; read-out: EC50, increase of [Ca2+]i in F11 cells
Experimental: F11 (mouse neuroblastoma × DRG neuron hybrid; European Collection of Authenticated Cell Cultures) were cultured as previously described. Cells were maintained on Ham’s F12 media supplemented with 10% FBS, 100 µM hypoxanthine, 0.4 µM aminopterin, and 16 µM thymidine (Hybri-Max, Sigma Aldrich). 384-well imaging plates (Corning, Lowell, MA, USA) were seeded 24 h prior to calcium imaging, resulting in ~ 90% confluence at the time of imaging. Cells were loaded for 30 min at 37 °C with Calcium 4 assay component A in physiological salt solution (PSS; 140 mM NaCl, 11.5 mM D-glucose, 5.9 mM KCl, 1.4 mM MgCl2, 1.2 mM NaH2PO4, 5 mM NaHCO3, 1.8 mM CaCl2, 10 mM HEPES) according to the manufacturer’s instructions (Molecular Devices, Sunnyvale, CA). Ca^2+ responses were measured using a FLIPR^TETRA fluorescent plate reader equipped with a CCD camera (Ex: 470 to 490 nm, Em: […]) (Molecular Devices, Sunnyvale, CA). Signals were read every second for 10 s before, and 300 s after, the addition of peptide (in PSS supplemented with 0.1% BSA).
Data were plotted and analysed using Prism v9.0.0 (GraphPad Software, San Diego, CA, USA). For calcium imaging experiments of mouse DRG neurons and F11 cells, treatment groups were compared using unpaired t-tests. […]

mice [4] = assay type: in vivo, male C57BL/6J mice
[5] = tested on: mammalian small conductance calcium-activated potassium (KCa, SK) channel KCa2.2; conditions: cited from earlier work
From the text: XYTX2-Xa2a is similar in sequence to Bombus and Apis MCD-peptides and apamin. Apamin is a blocker of the mammalian small conductance calcium-activated potassium (KCa, SK) channel KCa2.2[20], while Apis MCD peptide is a blocker of Shaker-like voltage-gated potassium (KV) channels KV1.1 and KV1.2[21]. We hypothesised that XYTX2-Xa2a might share similar activity. Thus, we tested XYTX2-Xa2a for activity on human KV1.1, KV1.2, KV1.3, KCa2.1 and KCa2.2.

[6] = tested on: Shaker-like voltage-gated potassium (KV) channel KV1.1; conditions: cited from earlier work
[7] = tested on: Shaker-like voltage-gated potassium (KV) channel KV1.2; conditions: cited from earlier work
[8] = tested on: mouse dorsal root ganglion (DRG) cells; experiment: Calcium imaging assay of mouse DRG neurons; assay type: cell-based
Experimental: Figure 5 Pain-causing effects of X. aruana venom components. (a,b) Application of XYTX1-Xa1a (10 μM) to DRG cells produced an immediate and sustained, non-cell-specific increase in [Ca^2+]i. (c) Potency of XYTX1-Xa1a and melittin in F11 cells, as monitored by changes in [Ca^2+]i. (d–f) The increase in [Ca^2+]i caused by XYTX1-Xa1a was potentiated by the presence of venom PLA2 (1 µM), but not XYTX2-Xa2a (1 μM). **P < 0.01 (unpaired t-test). […] Data are expressed as mean ± SEM (n = 3–6). […] Data are expressed as mean ± SEM (n = 3–6). *P < 0.05; **P < 0.01; ****P < 0.0001 (one way-ANOVA with Tukey’s multiple comparisons).
DRG cells were isolated from 4- to 6-week-old-male C57BL/6 mice that were purchased from the Animal Resources Centre (WA, Australia). DRGs were dissociated, then cells were plated in Dulbecco’s Modified Eagle’s Medium (DMEM; Gibco, MD, USA) containing 10% fetal bovine serum (FBS) (Assaymatrix, VIC, Australia) and penicillin/streptomycin (Gibco) on a 96-well poly-D-lysine-coated culture plate (Corning, ME, USA) and maintained overnight. Cells were loaded with Fluo-4 AM calcium indicator, according to the manufacturer’s instructions (ThermoFisher Scientific, MA, USA). After loading (1 h), the dye-containing solution was replaced with assay solution (1× Hanks’ balanced salt solution, 20 mM HEPES). Images were acquired at 10× objective at 1 frame/s (excitation 485 nm, emission 521 nm). Fluorescence corresponding to [Ca^2+]i of ~ 250 cells per experiment was monitored in parallel using an Nikon Ti-E Deconvolution inverted microscope, equipped with a Lumencor Spectra LED Lightsource. Baseline fluorescence was monitored for 30 s. At 30 s, assay solution was replaced with either assay solution, or assay solution containing venom PLA2 (1 µM) or XYTX2-Xa2a (1 µM), then at 1 min with XYTX1-Xa1a (in assay solution ± venom PLA2 (1 µM) or XYTX2-Xa2a (1 µM)) and monitored for 2 min before being replaced with assay solution and then KCl (30 mM; positive control). Experiments involving the use of mouse tissue were approved by the University of Queensland Animal Ethics Committee (UQ AEC; approval number TRI/IMB/093/17).
Data were plotted and analysed using Prism v9.0.0 (GraphPad Software, San Diego, CA, USA). For calcium imaging experiments of mouse DRG neurons and F11 cells, treatment groups were compared using unpaired t-tests. For analysis of spontaneous pain, sum of pain behaviour counts at 30 min of treatment groups were compared using one-way ANOVA with Tukey’s multiple comparisons test. Statistical significance was defined as P < 0.05. All data are presented as mean ± SEM.

CC[C@H](C)[C@H](NC(=O)CN)C(=O)NCC(=O)N[C@@H](C)C(=O)N[C@H](C(=O)N[C@@H](CC(C)C)C(=O)N[C@@H](CCCCN)C(=O)N[C@H](C(=O)N[C@@H](CC(C)C)C(=O)N[C@H](C(=O)N[C@H](C(=O)NCC(=O)N[C@@H](CC(C)C)C(=O)N1CCC[C@H]1C(=O)N[C@@H](C)C(=O)N[C@@H](CC(C)C)C(=O)N[C@H](C(=O)N[C@@H](CO)C(=O)N[C@@H](Cc1c[nH]c2ccccc12)C(=O)N[C@H](C(=O)N[C@@H](CCCCN)C(=O)N[C@@H](CCCNC(=N)N)C(=O)N[C@@H](CCCCN)C(=O)N[C@@H](CCCNC(=N)N)C(=O)N[C@@H](CCC(N)=O)C(=O)N[C@@H](CCC(N)=O)C(N)=O)[C@@H](C)CC)[C@@H](C)CC)[C@@H](C)O)[C@@H](C)O)C(C)C)C(C)C [melittin]
paw swelling (mice [1]): caused paw swelling
pore formation [2]: can form pores in cell membranes
leak current in HEK293AD cells (HEK293AD cells; 10 μM melittin, 2 min after addition, n = 5 cells, Fig. S4): causes a leak current in HEK293AD cells
pain behaviours on co-injection with venom PLA2 (mice [3]): potentiated by co-injection with 20 pmol venom PLA2
spontaneous pain behaviours (mice [3]; shallow intraplantar): caused spontaneous pain behaviours
EC50 (F11 cells): 1.2 ± 0.1 µM

apamin: A. mellifera apamin (Uniprot: P01500), purchased from Alomone labs (CNCKAPETALCARRCQQH; UniProt P01500 28-45, looked up)
paw-withdrawal threshold to a mechanical stimulus versus negative control (saline) (mice [4]; 2 pmol/paw intraplantar, 1 and 4 h): no difference to negative control (saline) injection
pain behaviour counts versus control (mice [3]; 2 pmol alone, shallow intraplantar): not different to control
block of mammalian KCa2.2 [5]: blocker

MCD-peptide: mast cell-degranulating (MCD)-peptide of A. mellifera (Uniprot: P01499), purchased from Alomone labs (IKCNCKRHVIKPHICRKICGKN; UniProt P01499 28-49, looked up)
paw-withdrawal threshold to a mechanical stimulus versus negative control (saline) (mice [4]; mouse, in vivo): no difference to negative control (saline) injection
block of KV1.1 [6]: blocker
block of KV1.2 [7]: blocker
pain behaviour counts versus control (mice [3]; mouse, in vivo): not different to control

GFLSILKKLPLILKHLP-NH2 [XYTX1-Xa1a]
neurons with increase of [Ca2+]i ([8]; 10 μM (Fig. 5 legend), alone, mean ± SEM): 49.4 ± 3.2%
neurons activated, in the presence of XYTX2-Xa2a ([8]; with XYTX2-Xa2a (1 μM), mean ± SEM): 45.8 ± 5.5%
cell lysis in the presence of venom PLA2 ([8]; with venom PLA2 (1 µM), leakage of dye into extracellular media): increased cell lysis
neurons activated, in the presence of venom PLA2 ([8]; with venom PLA2 (1 µM), mean ± SEM): 93.2 ± 6.5%
paw swelling (mice [1]): caused paw swelling
leak current at + 60 mV (HEK293AD cells; 30 μM, 4 min after application, holding potential 0 mV, mean ± SEM, n = 6 cells, negative control ECS 0.08 ± 0.02 nA (n = 5 cells)): 3.3 ± 0.6 nA
pain behaviours on co-injection with venom PLA2 (mice [3]): increased (frequency and duration)
spontaneous pain behaviours (mice [3]; shallow intraplantar): caused spontaneous pain behaviours
EC50 (F11 cells): 5.2 ± 0.7 µM
